Where two headings read alike, the source gives them in different places.
What was measured:
Test in all cases: Drug combination viability screen (ATPlite, 72 h);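 for AUC: area under vehicle-normalized viability curve scaled 0 to 100 percent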;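 for Curve bottom: fraction of vehicle control viability from four-parameter log-logistic fit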
Assay type in all cases: cell-based, human
Parameters in all cases: AUC: unit not given beside the values
Suit2-07 cells = details: for EC50: Homo sapiens
Procedure: (§1) Cell viability was assessed by measuring ATP levels to indicate metabolic activity.
(§2) Afterward, small amounts were transferred to 384-well intermediate plates (Greiner Bio-One GmbH, Germany). […] For drug combination screening, 1000 to 5000 cells were seeded into 384-well plates (CulturPlate™, Perkin Elmer, MA, USA) using a Multidrop™ Combi Reagent Dispenser (Thermo Scientific, MA, USA) in 50 µl medium per well 24 h prior to drug treatment (seeding densities see Appendix Table S1). […] The final DMSO concentration in each well was 0.2%. […] Eight wells per plate without library drug served as negative controls, and sixteen wells per plate containing 5 µM Staurosporine served as positive controls. Control plates not containing any drug were used to correct for incubation effects, and data quality was assessed by calculation of Z-prime of positive and negative controls according to1 Z-prime=1−3SDpos+3SDneg/[…] where SD is the standard deviation. […] Dose–response curves from the experimental and hypothetical data were compared, and shifts in AUC were used to describe combination effects (AUC∆ = AUChypothetical − AUCexperimental). […] Only combinations with R^2 > 0.8 in both conditions were considered in the synergy analysis.

PANC-1 cells = test system: PANC-1 cells;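 for AUC: area under vehicle-normalized viability curve scaled 0 to 100 percent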;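 for Curve bottom: fraction of vehicle control viability from four-parameter log-logistic fit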
Procedure: as §1, §2

PaTu-8988-T cells = details: for EC50: Homo sapiens, PaTu 8988t
Procedure: as §1, §2

Colo-357 cells = details: for EC50: Homo sapiens, COLO357
Procedure: as §1, §2

HuP-T4 cells = details: for EC50: Homo sapiens
Procedure: as §1, §2

MiaPaCa-2 cells = details: for EC50: Homo sapiens
Procedure: as §1, §2

Nc1ccn([C@@H]2O[C@H](CO)[C@@H](O)C2(F)F)c(=O)n1 [GEM, Gemcitabine]
EC50 (Suit2-07 cells; read-out: EC50): 7.58 nM
EC50 (Suit2-07 cells; read-out: pEC50 (converted)): 7.59 nM
Reponse (Suit2-07 cells; Suit2-07, R1, 13.72 nM): 2323360
Reponse (Suit2-07 cells; Suit2-07, R1, 41.15 nM): 1614080
Reponse (Suit2-07 cells; Suit2-07, R1, 123.46 nM): 1487640
Reponse (Suit2-07 cells; Suit2-07, R1, 370.37 nM): 1265760
Reponse (Suit2-07 cells; Suit2-07, R1, 1111.11 nM): 1242400
Reponse (Suit2-07 cells; Suit2-07, R1, 3333.33 nM): 1298400
Reponse (Suit2-07 cells; Suit2-07, R1, 10000 nM): 913840
Reponse (Suit2-07 cells; Suit2-07, replicate R2, dose 13.72 nM, raw signal): 3086160
Reponse (Suit2-07 cells; Suit2-07, replicate R2, dose 41.15 nM, raw signal): 2294600
Reponse (Suit2-07 cells; Suit2-07, replicate R2, dose 123.46 nM, raw signal): 1746480
Reponse (Suit2-07 cells; Suit2-07, replicate R2, dose 370.37 nM, raw signal): 1730640
Reponse (Suit2-07 cells; Suit2-07, replicate R2, dose 1111.11 nM, raw signal): 1568520
Reponse (Suit2-07 cells; Suit2-07, replicate R2, dose 3333.33 nM, raw signal): 1439120
Reponse (Suit2-07 cells; Suit2-07, replicate R2, dose 10000 nM, raw signal): 1173920
Curve bottom (Suit2-07 cells; Suit2-07, GEM curve fit): 0.19
Curve effect size (Suit2-07 cells; Suit2-07, GEM curve fit): 0.81
Curve slope (Suit2-07 cells; Suit2-07, GEM curve fit): 1.96
Curve top (Suit2-07 cells; Suit2-07, GEM curve fit): 1.00
AUC (Suit2-07 cells; Suit2-07, GEM curve fit, in %): 46.93
EC50 (PANC-1 cells; Homo sapiens, PANC-1, read-out: EC50,GEM): ≥ 10 nM
Reponse (PANC-1 cells; PANC-1, R1, 13.72 nM): 5718200
Reponse (PANC-1 cells; PANC-1, R1, 41.15 nM): 4879000
Reponse (PANC-1 cells; PANC-1, R1, 370.37 nM): 4043760
Reponse (PANC-1 cells; PANC-1, R1, 1111.11 nM): 3920600
Reponse (PANC-1 cells; PANC-1, R1, 3333.33 nM): 3788160
Reponse (PANC-1 cells; PANC-1, R1, 10000 nM): 3980640
AUC (PANC-1 cells; PANC-1, GEM curve fit): 85.88
Curve bottom (PANC-1 cells; PANC-1, GEM curve fit): 0.69
Curve effect size (PANC-1 cells; PANC-1, GEM curve fit): 0.31
Curve slope (PANC-1 cells; PANC-1, GEM curve fit): 1.11
Curve top (PANC-1 cells; PANC-1, GEM curve fit): 1.01
Reponse (PANC-1 cells; Panc-1, R2, 41.15 nM): 5844240
Reponse (PANC-1 cells; Panc-1, R2, 123.46 nM): 5369400
Reponse (PANC-1 cells; Panc-1, R2, 370.37 nM): 5134080
Reponse (PANC-1 cells; Panc-1, R2, 1111.11 nM): 4763640
Reponse (PANC-1 cells; Panc-1, R2, 10000 nM): 4614040
Reponse (PANC-1 cells; Panc-1, replicate R2, dose 13.72 nM, raw signal): 6385680
EC50 (PaTu-8988-T cells; read-out: EC50,GEM): ≥ 10 nM
EC50 (PaTu-8988-T cells; read-out: EC50): 9.74 nM
EC50 (PaTu-8988-T cells; read-out: pEC50 (converted)): 9.77 nM
Reponse (PaTu-8988-T cells; PaTu-8988-T, R1, 13.72 nM): 1159840
Reponse (PaTu-8988-T cells; PaTu-8988-T, R1, 41.15 nM): 749200
Reponse (PaTu-8988-T cells; PaTu-8988-T, R1, 123.46 nM): 706000
Reponse (PaTu-8988-T cells; PaTu-8988-T, R1, 370.37 nM): 666320
Reponse (PaTu-8988-T cells; PaTu-8988-T, R1, 1111.11 nM): 670960
Reponse (PaTu-8988-T cells; PaTu-8988-T, R1, 3333.33 nM): 680760
Reponse (PaTu-8988-T cells; PaTu-8988-T, R1, 10000 nM): 674680
Reponse (PaTu-8988-T cells; PaTu-8988-T, replicate R2, dose 13.72 nM, raw signal): 1366360
Reponse (PaTu-8988-T cells; PaTu-8988-T, replicate R2, dose 41.15 nM, raw signal): 917320
Reponse (PaTu-8988-T cells; PaTu-8988-T, replicate R2, dose 123.46 nM, raw signal): 868680
Reponse (PaTu-8988-T cells; PaTu-8988-T, replicate R2, dose 370.37 nM, raw signal): 808920
Reponse (PaTu-8988-T cells; PaTu-8988-T, replicate R2, dose 3333.33 nM, raw signal): 899440
Reponse (PaTu-8988-T cells; PaTu-8988-T, replicate R2, dose 10000 nM, raw signal): 809960
Curve bottom (PaTu-8988-T cells; PaTu-8988-T, GEM curve fit): 0.31
Curve effect size (PaTu-8988-T cells; PaTu-8988-T, GEM curve fit): 0.68
Curve slope (PaTu-8988-T cells; PaTu-8988-T, GEM curve fit): 2.40
Curve top (PaTu-8988-T cells; PaTu-8988-T, GEM curve fit): 0.96
AUC (PaTu-8988-T cells; PaTu-8988-T, GEM curve fit, in %): 56.98
ATP luminescence signal (Colo-357 cells; Colo-357, R1, 13.72 nM): 68560
ATP luminescence signal (Colo-357 cells; Colo-357, R1, 41.15 nM): 61560
ATP luminescence signal (Colo-357 cells; Colo-357, R1, 123.46 nM): 70640
ATP luminescence signal (Colo-357 cells; Colo-357, R1, 370.37 nM): 48200
ATP luminescence signal (Colo-357 cells; Colo-357, R1, 1111.11 nM): 53560
ATP luminescence signal (Colo-357 cells; Colo-357, R1, 3333.33 nM): 50680
ATP luminescence signal (Colo-357 cells; Colo-357, R1, 10000 nM): 66360
ATP luminescence signal (Colo-357 cells; Colo-357, R2, 13.72 nM): 110000
ATP luminescence signal (Colo-357 cells; Colo-357, R2, 41.15 nM): 110560
ATP luminescence signal (Colo-357 cells; Colo-357, R2, 123.46 nM): 89840
ATP luminescence signal (Colo-357 cells; Colo-357, R2, 370.37 nM): 97560
ATP luminescence signal (Colo-357 cells; Colo-357, R2, 1111.11 nM): 70040
ATP luminescence signal (Colo-357 cells; Colo-357, R2, 3333.33 nM): 80720
ATP luminescence signal (Colo-357 cells; Colo-357, R2, 10000 nM): 83360
Curve bottom (Colo-357 cells; Colo-357, GEM curve fit): 0.03
Curve effect size (Colo-357 cells; Colo-357, GEM curve fit): 0.97
Curve slope (Colo-357 cells; Colo-357, GEM curve fit): 3.24
Curve top (Colo-357 cells; Colo-357, GEM curve fit): 0.97
AUC (Colo-357 cells; Colo-357, GEM curve fit, in %): 20.82
EC50 (Colo-357 cells; read-out: EC50): 1.32 nM
EC50 (Colo-357 cells; read-out: pEC50 (converted)): 1.32 nM
EC50 (HuP-T4 cells; HuP-T4, read-out: EC50): 3.08 nM
EC50 (HuP-T4 cells; HuP-T4, read-out: pEC50 (converted)): 3.09 nM
Reponse (HuP-T4 cells; HuP-T4, R1, 13.72 nM): 312040
Reponse (HuP-T4 cells; HuP-T4, R1, 370.37 nM): 231280
Reponse (HuP-T4 cells; HuP-T4, R1, 1111.11 nM): 191240
Reponse (HuP-T4 cells; HuP-T4, R1, 3333.33 nM): 187320
Reponse (HuP-T4 cells; HuP-T4, R1, 10000 nM): 235360
Reponse (HuP-T4 cells; HuP-T4, R2, 13.72 nM): 353160
Reponse (HuP-T4 cells; HuP-T4, R2, 41.15 nM): 432720
Reponse (HuP-T4 cells; HuP-T4, R2, 123.46 nM): 313280
Reponse (HuP-T4 cells; HuP-T4, R2, 370.37 nM): 314320
Curve bottom (HuP-T4 cells; HuP-T4, GEM curve fit): 0.12
Curve effect size (HuP-T4 cells; HuP-T4, GEM curve fit): 0.88
Curve slope (HuP-T4 cells; HuP-T4, GEM curve fit): 4.56
Curve top (HuP-T4 cells; HuP-T4, GEM curve fit): 0.99
AUC (HuP-T4 cells; HuP-T4, GEM curve fit, in %): 35.37
EC50 (MiaPaCa-2 cells; MIA PaCa-2, read-out: EC50,GEM): ≥ 10 nM
EC50 (MiaPaCa-2 cells; MIA PaCa-2, read-out: EC50): 13.6 nM
EC50 (MiaPaCa-2 cells; MIA PaCa-2, read-out: pEC50 (converted)): 13.5 nM
Reponse (MiaPaCa-2 cells; MiaPaCa-2, R1, 13.72 nM): 4319964
Reponse (MiaPaCa-2 cells; MiaPaCa-2, R1, 41.15 nM): 2249377
Reponse (MiaPaCa-2 cells; MiaPaCa-2, R1, 123.46 nM): 1464819
Reponse (MiaPaCa-2 cells; MiaPaCa-2, R1, 370.37 nM): 1237785
Reponse (MiaPaCa-2 cells; MiaPaCa-2, R1, 1111.11 nM): 1237333
Reponse (MiaPaCa-2 cells; MiaPaCa-2, R1, 3333.33 nM): 1424454
Reponse (MiaPaCa-2 cells; MiaPaCa-2, R1, 10000 nM): 1232056
Reponse (MiaPaCa-2 cells; MiaPaCa-2, R2, 13.72 nM): 3184320
Reponse (MiaPaCa-2 cells; MiaPaCa-2, R2, 41.15 nM): 1827720
Reponse (MiaPaCa-2 cells; MiaPaCa-2, R2, 123.46 nM): 1167560
Reponse (MiaPaCa-2 cells; MiaPaCa-2, R2, 370.37 nM): 1308800
Reponse (MiaPaCa-2 cells; MiaPaCa-2, R2, 1111.11 nM): 1074400
Reponse (MiaPaCa-2 cells; MiaPaCa-2, R2, 3333.33 nM): 1132280
Reponse (MiaPaCa-2 cells; MiaPaCa-2, R2, 10000 nM): 1191360
Curve bottom (MiaPaCa-2 cells; MiaPaCa-2, GEM curve fit): 0.18
Curve effect size (MiaPaCa-2 cells; MiaPaCa-2, GEM curve fit): 0.81
Curve slope (MiaPaCa-2 cells; MiaPaCa-2, GEM curve fit): 1.52
Curve top (MiaPaCa-2 cells; MiaPaCa-2, GEM curve fit): 0.96
AUC (MiaPaCa-2 cells; MiaPaCa-2, GEM curve fit, in %): 51.47

Reference: paper PMC11876601 (Molecular Systems Biology, 2025)
